In patent US5143916A, “Naphthylpiperazines useful as 5-HT1A receptor ligands” (Adir et Compagnie, priority 1989, dated 1992):

Legend:
5-HT1A receptors = settings: European Journal of Pharmacology, (1988), 149, p. 213-223; cited from earlier work
[1] = Antihypertensive activity: arterial blood pressure and heart rate in anesthetized mongrel dogs (i.v.); type: in vivo
Protocol: Mongrel dogs (male and female) are anesthetized with phenobarbital (30 mg/kg i.v.) and then placed in artificial respiration (Bird Mark VII respirator). Arterial blood pressure is measured by means of a catheter placed in the abdominal aorta via the femoral artery. This catheter is connected to a pressure cell (Statham® R23 D6) linked to a recorder.
Heart rate is measured by means of a Gould Biotach®.
Sympathetic nervous activity is recorded from the renal nerve by means of a silver electrode. The amplified signal is visualized on an oscilloscope (Tektronix 5115®) and then measured in μV by means of a Gould integrator.

[2] = dog, in vivo; cited from earlier work

O=C(NCCN1CCN(c2cccc3c2OC[C@H](CO)O3)CC1)c1ccc(F)cc1 [flesinoxan]
5-HT1A receptor agonist activity, antihypertensive properties (5-HT1A receptors): antihypertensive properties due to its 5-HT1A receptor agonist activity

O=C(NCCN1CCN(c2cccc3c2OC[C@H](CO)O3)CC1)c1ccc(F)cc1 (racemic) [Flesinoxan, racemic]
Effect on arterial blood pressure ([1]; 10 μg/kg i.v.): 0 mm/Hg
Effect on heart rate ([1]; 10 μg/kg i.v.): 0 Beats/min.
Effect on heart rate ([1]; 30 μg/kg i.v.): 0 Beats/min.

O=C(NCCN1CCN(c2cccc3c2OC[C@H](CO)O3)CC1)c1ccc(F)cc1 (single isomer, unassigned) [Flesinoxan, (+) isomer]
Relative activity of flesinoxan isomers [2]: the more active isomer
